# Laboratory results reported in PMC7645381, “Development and application of a high-throughput screening assay for identification of small molecule inhibitors of the P. falciparum reticulocyte binding-like homologue 5 protein” (International Journal for Parasitology: Drugs and Drug …, 2020).
# pEC50, pIC50: −log10 of the molar value. Values joined by “and” are separate entries in the source; they are usually repeats but may differ in a detail not shown here. Equal entries are not always repeated. Where two headings read alike, the source gives them in different places.
# Tests used:
# [1] = Basigin_IC50_Counter_Alpha counterscreen; settings: 11 pt titration; flag (POORFIT given as ~)
# Source text: Supplement mmc3.xlsx, sheet "Report" | column: Basigin_IC50_Counter_Alpha IC50
# [2] = AlphaScreen TruHits counterscreen assay; settings: 11 pt titration; flag (POORFIT given as ~); read-out: Basigin_IC50_Counter_TruHits IC50
# Method: The counterscreen assay was conducted using AlphaScreen TruHits kit (PerkinElmer). Biotinylated acceptor beads and Streptavidin donor beads were both diluted in assay buffer (final concentration of 10 μg/mL). Using the Combi-multidrop, 10 μL of each bead solution (20 μg/mL prepared in assay buffer) was added to every well of the assay plate under subdued lighting. Compound addition and assay readout was performed as described above.
# [3] = target: P. falciparum Rh5 (Rh5 – basigin interaction) (Plasmodium falciparum, UniProt Q8IFM5); assay: biochemical; type: binding; settings: 11 pt titration of the 45 hits; flag (POORFIT given as ~); two lines per compound; read-out: Basigin_IC50_Assay_Alpha IC50
# [4] = system: HepG2 cells; set-up: method as in Pingaew et al., 2014; settings: incubation time of 48 h, MTT assay ref Pingaew et al., 2014; read-out: HepG2 EC50 literature value; cited from earlier work
# [5] = system: HepG2 cells; assay: HepG2 growth inhibition assay; type: cell-based; settings: Homo sapiens, 10-point dilution series, 48 h, Cell Titre-Glo
# Method: HepG2 cells were cultured in Dulbeccos modified eagle's medium (DMEM) supplemented with 10% fetal calf serum (FCS), in a humidified incubator at 37 °C and 5% CO2. Ten-point compound titration assays were performed by treating cells (1 × 10^3) for 48 h in 384 well tissue culture treated plates (Greiner). Cytotoxicity was determined using Cell Titer Glo (Promega) and calculated as a percentage using DMSO as a positive growth control and 10 μM Bortezomib as a negative growth control. EC50 values were calculated using a 4-parameter log dose, non-linear regression analysis, with sigmoidal dose response (variable slope) curve fit using Graph Pad Prism (version 6.05). 0 and 100 constraint parameters were used for curve fitting. […]
# Sequence of P. falciparum Rh5 (Rh5 – basigin interaction) (Q8IFM5 24-526): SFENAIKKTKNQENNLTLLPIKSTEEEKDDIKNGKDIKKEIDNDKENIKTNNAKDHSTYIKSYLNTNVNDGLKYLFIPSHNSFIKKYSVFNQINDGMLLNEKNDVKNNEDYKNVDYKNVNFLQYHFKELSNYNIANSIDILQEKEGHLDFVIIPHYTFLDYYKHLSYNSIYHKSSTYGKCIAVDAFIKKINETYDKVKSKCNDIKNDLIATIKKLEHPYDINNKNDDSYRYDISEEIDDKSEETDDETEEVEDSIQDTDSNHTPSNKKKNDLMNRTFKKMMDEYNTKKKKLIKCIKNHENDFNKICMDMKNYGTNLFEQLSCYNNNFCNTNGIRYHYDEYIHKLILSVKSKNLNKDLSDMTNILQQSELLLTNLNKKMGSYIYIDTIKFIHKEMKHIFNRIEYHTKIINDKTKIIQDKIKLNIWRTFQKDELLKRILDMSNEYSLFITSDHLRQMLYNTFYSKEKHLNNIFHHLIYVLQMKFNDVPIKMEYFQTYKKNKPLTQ
SMILES,pIC50 [1],pIC50 [2],pIC50 [3],pEC50 [4],pEC50 [5]
CCCN1CCc2cccc3c2[C@H]1Cc1ccc(O)c(O)c1-3 [WEHI-1215034],4.70 and 4.64,< 4.60,5.81 and 5.65,,
CN1CCc2cccc3c2[C@H]1Cc1ccc(O)c(O)c1-3 [WEHI-1216442],< 4.60,< 4.60,~5.39 and 5.38,,
O=C(Nc1cccc2c(=O)cc(-c3nnn[nH]3)oc12)c1ccc(OCCCCc2ccccc2)cc1 [WEHI-1216506],4.98 and 4.90,4.61 and < 4.60,5.28 and ~5.25,,
COCCCOc1ccnc(C[S+]([O-])c2nc3ccccc3[nH]2)c1C (centres unmarked) [WEHI-1216602],< 4.60,< 4.60,5.97 and 5.91,,
"COc1cc([C@@H]2c3cc4c(cc3[C@@H](O[C@@H]3O[C@@H]5CO[C@@H](C)O[C@H]5[C@H](O)[C@H]3O)[C@H]3COC(=O)[C@H]23)OCO4)cc(OC)c1O [Etoposide, reference compound]",,,,4.52,4.80
CC(=O)N1CCN(c2ccc(OC[C@@H]3CO[C@@](Cn4ccnc4)(c4ccc(Cl)cc4Cl)O3)cc2)CC1 [WEHI-1215227],4.87 and 4.92,4.63 and 4.66,4.81 and 4.86,,
